The results in this text go back to the supplement of paper PMC3770661.

Structures can show the parent of a compound that is named as a salt. ± gives the uncertainty stated by the source.

The assay relates to HepG2 (L1.3 5'UTR promoter firefly luciferase reporter). Kind of assay: L1 promoter activity (FLuc/RLuc) relative to DMSO vehicle control (% of control); higher = stronger L1 promoter activation.
Where [1] appears, read: concentration (uM unless unit written): 0.5, treatment time: 6 h.
The mark [2] stands for this setting: concentration (uM unless unit written): 0.5, treatment time: 24 h.
Where [3] appears, read: concentration (uM unless unit written): 1, treatment time: 6 h.
Setting [4] is: concentration (uM unless unit written): 1, treatment time: 24 h.
Setting [5] is: concentration (uM unless unit written): 50, treatment time: 6 h.
[6] abbreviates: concentration (uM unless unit written): 100, treatment time: 6 h.
Where [7] appears, read: concentration (uM unless unit written): 200, treatment time: 6 h.
[8] abbreviates: concentration (uM unless unit written): 1000, treatment time: 24 h.
Where [9] appears, read: concentration (uM unless unit written): 100, treatment time: 24 h.
Where [10] appears, read: concentration (uM unless unit written): 250, treatment time: 6 h.
[11] abbreviates: concentration (uM unless unit written): 250, treatment time: 24 h.
The mark [12] stands for this setting: concentration (uM unless unit written): 500, treatment time: 6 h.
Setting [13] is: concentration (uM unless unit written): 1000, treatment time: 6 h.
[14] abbreviates: concentration (uM unless unit written): 2.5, treatment time: 6 h.
[15] abbreviates: concentration (uM unless unit written): 2.5, treatment time: 24 h.
The mark [16] stands for this setting: concentration (uM unless unit written): 5, treatment time: 6 h.
[17] abbreviates: concentration (uM unless unit written): 5, treatment time: 24 h.
Setting [18] is: concentration (uM unless unit written): 10, treatment time: 6 h.
Setting [19] is: concentration (uM unless unit written): 10, treatment time: 24 h.
The mark [20] stands for this setting: concentration (uM unless unit written): 50, treatment time: 24 h.
Where [21] appears, read: concentration (uM unless unit written): 0.1, treatment time: 6 h.
The mark [22] stands for this setting: concentration (uM unless unit written): 0.1, treatment time: 24 h.
Where [23] appears, read: concentration (uM unless unit written): 20, treatment time: 6 h.
The mark [24] stands for this setting: concentration (uM unless unit written): 20, treatment time: 24 h.
Setting [25] is: concentration (uM unless unit written): 125, treatment time: 6 h.
The mark [26] stands for this setting: concentration (uM unless unit written): 125, treatment time: 24 h.

Take `c1ccc2c(c1)cc1ccc3cccc4ccc2c1c34` [Benzo(a)pyrene]: the L1 promoter activity by setting is: under setting [1], 102 ± 12; under setting [2], 132 ± 17; under setting [3], 117 ± 12; under setting [4], 140 ± 22; (concentration (uM unless unit written): 3, treatment time: 6 h) 133 ± 18; (concentration (uM unless unit written): 3, treatment time: 24 h) 187 ± 37.

Turning to `Cc1cn([C@H]2C[C@H](N=[N+]=[N-])[C@@H](CO)O2)c(=O)[nH]c1=O` [Azidothymidine], the L1 promoter activity by setting is: under setting [5], 107 ± 25; under setting [6], 106 ± 26; under setting [7], 111 ± 27; (concentration (uM unless unit written): 200, treatment time: 24 h) 104 ± 13; under setting [8], 110 ± 7.2.

For the compound `NS(=O)(=O)c1cc2c(cc1Cl)NC(C(Cl)Cl)NS2(=O)=O` (stereo not given) [Trichlormethiazide], the L1 promoter activity is 103 ± 10 under setting [6]; 66.9 ± 13 under setting [9]; 108 ± 17 under setting [10]; 59.6 ± 9.6 under setting [11]; 102 ± 6.6 under setting [12]; 99.7 ± 27 under setting [13].

For `CCCc1nc2c(C)cc(-c3nc4ccccc4n3C)cc2n1Cc1ccc(-c2ccccc2C(=O)O)cc1` [Telmisartan], the L1 promoter activity is, setting by setting: (concentration (uM unless unit written): 1.25, treatment time: 6 h) 104 ± 11; (concentration (uM unless unit written): 1.25, treatment time: 24 h) 112 ± 8; under setting [14], 105 ± 8.6; under setting [15], 114 ± 9.7; under setting [16], 115 ± 3.5; under setting [17], 114 ± 9. The L1 promoter activity reads like this: under setting [18], 119 ± 15; under setting [19], 119 ± 3.6.

Take `N.N.[Cl][Pt][Cl]` [Cisplatin]: the L1 promoter activity by setting is: under setting [18], 109 ± 13; under setting [19], 98.4 ± 13; under setting [5], 117 ± 23; under setting [20], 105 ± 7.7; under setting [6], 148 ± 40; under setting [9], 95.4 ± 19.

Turning to `CC[C@@]1(O)C(=O)OCc2c1cc1n(c2=O)Cc2cc3ccccc3nc2-1` [Camptothecin], the L1 promoter activity by setting is: (concentration (uM unless unit written): 0.05, treatment time: 6 h) 110 ± 17; (concentration (uM unless unit written): 0.05, treatment time: 24 h) 142 ± 21; under setting [21], 98.1 ± 16; under setting [22], 135 ± 21; (concentration (uM unless unit written): 0.3, treatment time: 6 h) 103 ± 22; (concentration (uM unless unit written): 0.3, treatment time: 24 h) 152 ± 13.

For the compound `C=C1[C@@H](C)[C@H]2[C@H](Cc3ccccc3)NC(=O)[C@]23[C@H](OC(C)=O)/C=C/[C@@](C)(O)C(=O)[C@@H](C)C/C=C/[C@H]3[C@@H]1O` [Cytochalasin D], the L1 promoter activity is 110 ± 13 under setting [21]; 106 ± 11 under setting [22]; 101 ± 7.4 under setting [1]; 128 ± 8.5 under setting [2]; 106 ± 12 under setting [3]; 167 ± 16 under setting [4]. The compound also gave an L1 promoter activity under setting [18] of 98.6 ± 13 and an L1 promoter activity under setting [19] of 295 ± 20.

As to `ClC(Cl)(Cl)Cl` [Carbon tetrachloride], the L1 promoter activity stood at 99.7 ± 5.5 under setting [12]; 91.3 ± 3.6 (concentration (uM unless unit written): 500, treatment time: 24 h); 111 ± 5.9 under setting [13]; 90.7 ± 12 under setting [8]; 108 ± 8.1 (concentration (uM unless unit written): 2000, treatment time: 6 h); 98.4 ± 8.2 (concentration (uM unless unit written): 2000, treatment time: 24 h).

Turning to `CC(=O)O[C@H]1C(=O)[C@@]2(C)[C@H]([C@H](OC(=O)c3ccccc3)[C@]3(O)C[C@H](OC(=O)[C@H](O)[C@@H](NC(=O)c4ccccc4)c4ccccc4)C(C)=C1C3(C)C)[C@]1(OC(C)=O)CO[C@@H]1C[C@@H]2O` [Taxol], the L1 promoter activity was 104 ± 17 under setting [16]; 86.9 ± 18 under setting [17]; 123 ± 35 under setting [18]; 81.9 ± 11 under setting [19]; 96.8 ± 14 under setting [23]; 76.3 ± 13 under setting [24].

`CC(=O)N1CCN(c2ccc(OCC3COC(Cn4ccnc4)(c4ccc(Cl)cc4Cl)O3)cc2)CC1` (stereo not given) [Ketoconazol]: the L1 promoter activity runs as follows: under setting [18], 90.8 ± 12; under setting [19], 82.2 ± 16; under setting [23], 83.5 ± 11; under setting [24], 57.5 ± 15; (concentration (uM unless unit written): 40, treatment time: 6 h) 71.4 ± 9.3; (concentration (uM unless unit written): 40, treatment time: 24 h) 37.2 ± 4.2.

Take `CCOC(=O)C(C)(C)Oc1ccc(Cl)cc1` [Clofibrate]: the L1 promoter activity is, setting by setting: under setting [18], 113 ± 11; under setting [19], 112 ± 7.9; under setting [6], 102 ± 11; under setting [9], 100 ± 9.5; under setting [13], 106 ± 17; under setting [8], 132 ± 23.

In the case of `CN(C)CCC(c1ccc(Cl)cc1)c1ccccn1` (racemic) [(±)-Chlorpheniramine maleate salt], the L1 promoter activity was determined as 91.1 ± 9.6 under setting [5]; 96.2 ± 19 under setting [20]; 101 ± 9.2 under setting [6]; 86.4 ± 8.2 under setting [9]; 84 ± 3.3 under setting [12].

In the case of `CN1CCC(=C2c3ccccc3CC(=O)c3sccc32)CC1` [Ketotifen fumarate salt], the L1 promoter activity came out at 90.4 ± 6.5 under setting [5]; 89.9 ± 4.6 under setting [20]; 92.3 ± 7.8 under setting [6]; 83.7 ± 8 under setting [9]; 80.3 ± 4.5 under setting [7].

As to `C=CCCC(=O)O` [4-Pentenoic acid], the L1 promoter activity (concentration (uM unless unit written): 25000, treatment time: 6 h) came to 102 ± 2.3; the L1 promoter activity (concentration (uM unless unit written): 25000, treatment time: 24 h) is 28.2 ± 0.94; the L1 promoter activity (concentration (uM unless unit written): 50000, treatment time: 6 h) was found to be 99.1 ± 4.5; the L1 promoter activity (concentration (uM unless unit written): 50000, treatment time: 24 h) amounted to 22.5 ± 1.7; the L1 promoter activity (concentration (uM unless unit written): 100000, treatment time: 6 h) came out at 101 ± 26; the L1 promoter activity (concentration (uM unless unit written): 100000, treatment time: 24 h) was 25.8 ± 2.7.

With `NC(=O)CI` [Iodoacetamide], the L1 promoter activity reads like this: under setting [21], 97.4 ± 9; under setting [22], 103 ± 11; under setting [3], 101 ± 13; under setting [4], 106 ± 16; under setting [16], 117 ± 23; under setting [18], 130 ± 27.

`Nc1nc(=S)c2[nH]cnc2[nH]1` [6-Thioguanine]: the L1 promoter activity reads like this: under setting [14], 126 ± 16; under setting [15], 98.6 ± 12; under setting [16], 108 ± 17; under setting [17], 102 ± 14; under setting [18], 104 ± 4.2; under setting [19], 97.3 ± 11.

The compound `CN(Cc1cc(Br)cc(Br)c1N)C1CCCCC1` [Bromhexine hydrochloride] had an L1 promoter activity (concentration (uM unless unit written): 62.5, treatment time: 6 h) of 108 ± 14; an L1 promoter activity (concentration (uM unless unit written): 62.5, treatment time: 24 h) of 102 ± 7.2; an L1 promoter activity under setting [25] of 97.8 ± 12; an L1 promoter activity under setting [26] of 98.7 ± 12.

Turning to `CCOC(=O)[C@@]1(CCCCCCOc2ccc(Cl)cc2)CO1` [Etomoxir], the L1 promoter activity stood at 127 ± 11 under setting [5]; 111 ± 15 under setting [20]; 147 ± 12 under setting [6]; 143 ± 17 under setting [9]; 181 ± 23 under setting [12].

Under “concentration (uM unless unit written): 17.5, treatment time: 6 h”, `CC1=CC(=O)c2ccccc2C1=O` [Menadione] came in with an L1 promoter activity of 116 ± 11.

Take `C[C@]12CCC(=O)C=C1CC[C@@H]1[C@@H]2CC[C@@]2(C)[C@H]1CC[C@]2(C)O` [Methyltestosterone]: the L1 promoter activity is, setting by setting: (concentration (uM unless unit written): 25, treatment time: 6 h) 94.7 ± 15; (concentration (uM unless unit written): 25, treatment time: 24 h) 73.9 ± 15; under setting [5], 108 ± 4.4; under setting [20], 74.5 ± 14; under setting [6], 98.5 ± 14; under setting [9], 85.3 ± 3.9.

For `COC1=C(OC)C(=O)c2ccccc2C1=O` [2,3-Dimethoxy-1,4-naphthoquinone], the L1 promoter activity came to 119 ± 8.7 (concentration (uM unless unit written): 15, treatment time: 6 h) and 119 ± 8.1 (concentration (uM unless unit written): 30, treatment time: 6 h).

With `O=c1[nH]cc(F)c(=O)[nH]1` [Fluorouracil], the L1 promoter activity reads like this: under setting [16], 110 ± 30; under setting [17], 107 ± 18; under setting [18], 109 ± 22; under setting [19], 83.2 ± 4.1; under setting [23], 94.5 ± 11; under setting [24], 73.4 ± 11.

Regarding `O=C(O)Cc1ccccc1Nc1c(Cl)cccc1Cl` [Diclofenac], the L1 promoter activity came to 109 ± 7.5 under setting [25], 68.5 ± 3.6 under setting [26], 107 ± 1.6 under setting [10] and 59.6 ± 5.5 under setting [11].
